Tested on: retinas
Assay: protection of retinas from acute light-induced toxicity
Format: in vivo
Conditions: no data or method given

Vitamin E
protection of retinas from acute light-induced toxicity: effective in protecting retinas from acute light-induced toxicity
